Active and inactive are the calls of the source.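 The calls were made as follows: active = compounds giving half or more protection of infected cells from virus-caused growth loss, again on retest; inactive = the rest.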
Test system: CEM cells HIV-1 protection, formazan growth assay
Assay: NCI AIDS Antiviral Assay
Conditions: for IC50: measured here: growth of uninfected CEM cells
Method in brief: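 Soluble formazan readout of cell growth; CEM cells ± HIV-1; 5 drug concs. ≥50% protection → retest; ≥50% again = moderately active; reproducible 100% = confirmed active.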

SMILES | EC50 [µM] | IC50 [µM] | outcome
O=C(Nc1ccc([N+](=O)[O-])cc1)C1C(=O)C(=O)N(c2ccc([N+](=O)[O-])cc2)C1=O (configuration not stated) | > 234 | > 234 | 
O=C(NC(CO)Cc1ccc(Oc2cc(CC(CO)NC(=O)OCc3ccccc3)ccc2OC(=O)OCc2ccccc2)cc1)OCc1ccccc1 (configuration not stated) | > 200 | 20.9 | 
CC(C)(C)C1CCC2c3c([nH]c4ccccc34)C3C(=O)N(c4ccccc4Cl)C(=O)C3C2C1 (configuration not stated) | > 200 | 16.6 | 
Cc1ccc(C)c(C2=C/C(=C/c3ccc(N(CCC#N)CCC#N)cc3)C(=O)O2)c1 | > 9.55 | > 9.55 | 
CC1C(=O)C(C)C(c2cccs2)N(N=O)C1c1cccs1 (configuration not stated) | > 58.9 | 37.2 | 
CSc1n[nH]c(NC(=O)c2ccccc2Br)n1 | > 575 | 427 | 
O=C(O)c1ccc2c(c1)S(=O)(=O)c1ccccc1C2=O | > 200 | > 200 | 
Cc1ccc(C(=O)Nc2ccccc2)cc1N=NN(C)C | > 331 | 288 | 
CCCOc1ccc2[nH]cc(C(COC)c3c[nH]c4ccc(OCCC)cc34)c2c1 | > 200 | 12.9 | 
CCOC1c2cc(OC)c(OC)cc2-c2ccc3ccccc3c2N1C (configuration not stated) | > 74.1 | 10.2 | 
Nc1nc(Cl)c(C=O)c(NCC2(CO)CC(CCc3ccccc3)C2)n1 (configuration not stated) | > 200 | 3.98 | 
c1ccc(-c2cn3nc4ccccc4c3nn2)cc1 | > 200 | > 200 | 
COc1ccc2c(c1)CCC1C(=O)NN=C21 (configuration not stated) | > 776 | > 776 | 
O=S(Cc1ccccc1)OOCCCCOS(=O)OCc1ccccc1 (configuration not stated) | > 200 | 4.17 | 
N#Cc1c(-c2ccc([N+](=O)[O-])cc2)c(=O)oc2cc(O)ccc12 | > 100 | 74.1 | 
O=S(O)CCCCSSCc1ccccc1CSSCCCCS(=O)O |  |  | inactive
COc1ccc(/C=N/Nc2nc3ccccc3c(=O)n2-c2ccccc2)c(OCc2ccccc2)c1 | > 200 |  | 
O=c1cc2ccccc2nn1Cc1ccccc1Cl | > 251 | > 251 | 
CC(=O)OC(CC1(C)C(C)CCC23COC(=O)C2=CCCC31)C1=CC(=O)OC1O (configuration not stated) | > 447 | > 447 | 
CC(=O)O[C@H]1C=CC23OC(=O)[C@]1(C)[C@H]2[C@H](C(=O)O)C12CC(=O)[C@@](CO)(CC[C@H]13)C2 |  |  | inactive
CCOC(=O)NC(Nc1ccc(C)cc1)(C(F)(F)F)C(F)(F)F | > 200 | > 200 | 
CCCNC(=O)C(C)(Cl)C(=O)c1ccccc1O (configuration not stated) | > 479 | 209 | 

SMILES | EC50 [µM] | IC50 [µM] | outcome
CC(=O)OC1CC2(C)OC(Cc3ccccc32)O1 (configuration not stated) | > 200 | > 200 | 
COc1ccc(C(=O)/C=C/c2ccc(OCCCOc3ccc(/C=C/C(=O)c4ccc(OC)cc4)cc3)cc2)cc1 | > 200 | > 200 | 
O=C1c2ccccc2C(=O)C1c1ccc2c(ccc3ccccc32)n1 |  |  | inactive
C=C1CN(S(=O)(=O)c2ccc(C)cc2)CCCN(CC2CC2)CCCN(S(=O)(=O)c2ccc(C)cc2)C1 | > 200 | 4.27 | 
CCCCCCCCCCOC(=O)c1cc[n+](C)cc1 |  |  | inactive
COCOC1CCCC[C@@]1(OCCOCCO[C@@]1(c2ccccc2)CCCC[C@H]1OCOC)c1ccccc1 (some centres not stated) | > 5.01 | > 5.01 | 
C=CCCCC(C#N)(c1ccccc1)N(C)C (configuration not stated) |  |  | inactive
CCOC(=O)C(=O)Nc1ccc(Cl)c(C(F)(F)F)c1 |  |  | inactive
c1ccc2c3nnc(c2c1)SCCSCCSc1nnc(c2ccccc12)SCCSCCS3 | > 200 | > 200 | 
O=C(c1ccccc1)C(c1ccccc1)C1(O)C(=O)Nc2c(Cl)cc(Cl)cc21 (configuration not stated) | > 63.1 | > 63.1 | 
O=C(OCCc1ccccc1)c1ccc2cc(O)c(O)cc2c1 | > 31.6 | 12.9 | 
c1ccc(Oc2cccc(Oc3ccc4c(c3)-c3nc-4nc4[nH]c(nc5nc(nc6[nH]c(n3)c3ccc(Oc7cccc(Oc8ccccc8)c7)cc63)-c3cc(Oc6cccc(Oc7ccccc7)c6)ccc3-5)c3ccc(Oc5cccc(Oc6ccccc6)c5)cc43)c2)cc1 | > 3.02 | > 3.02 | 
O=S(=O)(O)c1ccc2cc(S(=O)(=O)O)ccc2c1 |  |  | inactive
C(/C=C/Nc1ccc(Oc2ccccc2)cc1)=Nc1ccc(Oc2ccccc2)cc1 | > 200 | 9.33 | 
COc1c(C(=O)/C(=N/Nc2cccc(Cl)c2)C(C)=O)c(O)c(OC)c2occc12 | > 200 | 85.1 | 
Nc1ccccc1-c1nc2c(ccc3ccccc32)[nH]1 | > 72.4 | 57.5 | 
O=S1(=O)CC2(N3CCOCC3)CCCC21 (configuration not stated) | > 1070 | 229 | 
NC(N)=NCCS(=O)(=O)O | > 200 | > 200 | 
COC(=O)C1=C(C(=O)Nc2cccnc2Cl)N(c2ccc(OC)cc2[N+](=O)[O-])C(c2ccc(C)cc2)=CC1c1ccc(OC)cc1OC (configuration not stated) | > 100 | 1.95 | 
CC(=O)OC[C@]1(C)CCCC2(C)C1CCC1C=C(C)[C@H]3CCC12C3 (some centres not stated) | > 107 | > 107 | 
COc1cc(C(=O)n2c3ccc(Br)cc3c3nc4ccccc4nc32)cc(OC)c1OC | > 50.1 | > 50.1 | 
Cc1ccc(S(=O)(=O)N2CCN3C(=O)c4ccccc4C32c2ccc(F)cc2)cc1 (configuration not stated) | > 200 | 31.6 | 

SMILES | EC50 [µM] | IC50 [µM] | outcome
CN(C)c1nncc2n[nH]nc12 | > 200 | > 200 | 
COC(=O)C1=COC(OC2OC(CO)C(O)C(O)C2O)C2C1C=C[C@@]21C=C([C@@H](C)OC(=O)/C=C/c2ccc(O)cc2)C(=O)O1 (some centres not stated) | > 295 | 158 | 
c1ccc(N2N=NC3CCCC32)cc1 (configuration not stated) | > 200 | 95.5 | 
CC1(n2nc(-c3ccccc3)n(-c3ccccc3)c2=O)CSC1 | > 41.7 | > 41.7 | 
CCSc1nc2c([nH]1)c(=S)n(C)c(=S)n2C | > 200 | 41.7 | 
COc1ccc(/C=C(/C(=O)c2ccc(Cl)cc2)N2C=CC=CC2=C(C#N)C#N)cc1OC | > 20 | 0.117 | 
O=C(/C=C/c1cccs1)c1ccsc1 | > 200 | 11.7 | 
COc1c(C)c(C/C=C(\C)CCCCO[Si](c2ccccc2)(c2ccccc2)C(C)(C)C)c(OC)c(OC)c1OC | > 200 | 93.3 | 
COc1cc2c(cc1C)C1=C(C)C(=O)OC1[C@@H](O)[C@@H]2C (some centres not stated) | > 661 | 245 | 
CC1(C)C2C=C(CCN3CCOCC3)CC1C2 (configuration not stated) | > 200 | > 200 | 
Nc1nc2c(c(=O)[nH]1)CNC2=O | > 200 | > 200 | 
Nc1ccn(C2OC(COC(=O)c3ccccc3)C(OC(=O)c3ccccc3)C2I)c(=O)n1 (configuration not stated) | > 200 | 35.5 | 
Cc1c(Cl)cccc1NC(=O)C(=O)C1C(=O)CC(C)(C)CC1=O | > 741 | > 741 | 
O=C(O)CC(=O)Nc1ccccc1S | > 200 | > 200 | 
O=C1C2c3[nH]c4ccccc4c3C3CCCCC3C2C(=O)N1c1ccccc1 (configuration not stated) |  |  | inactive
O=C1C[N+]2(Cc3ccccc3)CCC1CC2 | > 851 | > 851 | 
COC1(OC)CCCCCCCCC(OC)(OC)CCCCCCCC1 | > 200 | > 200 | 
COc1ccc(-c2nnc3cc(C)n4nnnc4n23)cc1OC | > 200 | > 200 | 
COc1ccc(-n2cnc3c(NC(CCSC)C(=O)O)ncnc32)cc1 (configuration not stated) | 75.9 | > 200 | 
O=c1[nH]c(=O)n(C2OC(CO)C(O)C2O)cc1OCc1ccccc1 (configuration not stated) | > 708 | > 708 | 
Cc1ccc(S(=O)(=O)NCCCSCCN)cc1 | > 631 | 562 | 
CCOC(=O)C(N=O)C(=O)c1ccccc1 (configuration not stated) |  |  | inactive

SMILES | EC50 [µM] | IC50 [µM] | outcome
COc1ccc(CCC2c3cc(OC)c(OC)cc3CCN2C)cc1OC (configuration not stated) | > 676 | 240 | 
COc1ccc(/C=C2\CCC(C)C3=C2NC(=S)NC3c2ccc(OC)c(OC)c2)cc1OC (configuration not stated) | > 200 | 11.2 | 
Oc1[nH]c(=S)sc1/C=C1\C=Nc2ccccc21 | > 501 | 195 | 
c1ccc(P2c3ccccc3Nc3ccccc32)cc1 | > 200 | 61.7 | 
CSc1n[nH]c(NC(=O)c2ccccc2CS)n1 | > 64.6 | > 64.6 | 
O=c1c(C=Nc2ccccc2Cl)c(O)n(-c2ccccc2)c(=O)n1-c1ccccc1 |  |  | inactive
CCCCS/C(=C(/C#N)C(N)=O)c1cc2c([nH]1)CCCC2 |  |  | inactive
O=C1CCCC2=C1CC1=C(CCCC1=O)N2c1cccc2ccccc12 | 49 | 174 | 
Cc1cc2c(c(C=Nc3ccc([N+](=O)[O-])cc3)c1)OC1(C=C2)Oc2ccccc2C(=O)N1C (configuration not stated) | > 200 | 22.9 | 
Clc1ccc(C2=CCN3CC=C(c4ccc(Cl)cc4)C23)cc1 | > 200 | 10.7 | 
Cc1ccc2c(c1)nc1n2C(c2c(F)cccc2F)SC1 (configuration not stated) | > 200 | 33.1 | 
Cn1nc(-c2ccc3c(c2)OCO3)[n+]([O-])c2c(=O)n(C)c(=O)nc1-2 | > 200 | 0.38 | 
NNC(=S)N/N=C(\c1nc2ccc(Cl)cc2[nH]c1=O)C(O)c1cccc([N+](=O)[O-])c1 (configuration not stated) | > 562 | 120 | 
CC(C)(C)[Si](C)(C)OCC#C[C@@]1(O)CCCCC1CC(Sc1ccccc1)Sc1ccccc1 (some centres not stated) | > 200 | 12.6 | 
CCCCC1C(=O)N2[C@H](OC[C@@H]2C(C)C)O[C@@H]1C (some centres not stated) | > 977 | 501 | 
CC(C(=O)OCc1ccccc1)N(Cc1ccccc1)Cc1ccccc1 (configuration not stated) | > 200 | > 200 | 
S=c1c2cn[nH]c2nc2scc(-c3ccc(Cl)cc3)n12 | > 200 | 13.2 | 
Cc1c(CN2CCCC2)c(O)c2c(=O)c3c(O)c(CN4CCCC4)c(O)c4c5c(O)c(CN6CCCC6)c(O)c6c(=O)c7c(O)c(CN8CCCC8)c(C)c8c1c2c(c34)c(c78)c65 | > 17.8 | > 17.8 | 
N#CC(/C(=N/N=C(N)N)C(=O)Nc1ccccc1[N+](=O)[O-])c1nc(-c2ccc([N+](=O)[O-])cc2)cs1 (configuration not stated) | > 27.5 | > 27.5 | 
C[C@@]1(Br)C[C@@](C)(Cl)[C@@H](Br)CC1/C=C/Cl (some centres not stated) | > 200 | 77.6 | 
C=C(CCC(Cl)C(COC)OC(CCC)OCC)[Si](C)(C)C (configuration not stated) | > 38.9 | > 38.9 | 
